Key:
Assay type in all cases: in vivo
[1] = system: X-ray irradiated mice; assay: Survival of X-ray irradiated mice, ET18-OCH3 given after irradiation; settings: for Death/Survival treated: 2 × 25 mg/kg intravenous 6 hours and 12 hours after irradiation
Protocol: The efficacy of 1-O-octadecyl-2-O-methyl-glycero-3-phosphocholine (in the following referred to as “ET18-OCH3”) as a radioprotectant in the treatment of an acute radiation injury that is caused by (mid)lethal radiation doses was analyzed by determining its influence on the survival rate of mice and on the hematological syndrome of the radiation injury in response to different types of radiation.
A single dose of 25 mg/kg ET18-OCH3 was administered at a time intravenously to 25 mice 12 hours after exposure to an X-ray dose of 650 cGy (centiGray). Only one of the 25 treated mice died, as compared to 6 of the 25 mice in the control group.
After an intravenous administration of 25 mg/kg ET18-OCH3 6 hours and 12 hours after X-ray irradiation, respectively, the following results were obtained (Table 1). The chi-square distribution is given for all positive values. The chi-square test was used for comparing the results of the treated versus the control animals.
After an oral administration of 25 mg/kg ET18-OCH3 6 hours and 24 hours after exposure to a X-ray dose of 700 cGy X-ray irradiation, respectively, 2 of 25 treated animals died, as compared to 7 of 25 of the control animals.

[2] = system: neutron irradiated mice; assay: Survival of mice after neutron radiation, ET18-OCH3 given after irradiation; settings: 400-420 cGy neutron radiation, 50 mg/kg subcutaneous
Protocol: Mice were irradiated using a van de Graaf generator with of 3-8 MeV neutrons. The radiation doses used in the following analyses were 400, 410, and 420 cGy for each third of the treated and the control mice, respectively. A single dose of 50 mg/kg ET18-OCH3 was administered to half of the mice by subcutaneous injection.

[3] = system: neutron irradiated mice; assay: Cell numbers in the peripheral blood of mice after neutron irradiation; settings: for Granulocytes, median/interquartile distance / Leukocytes, median/interquartile distance / Lymphocytes, median/interquartile distance / Thrombocytes, median/interquartile distance: 300 cGy neutron
Protocol: Mice were irradiated using a van de Graaf generator with of 3-8 MeV neutrons. […] A single dose of 50 mg/kg ET18-OCH3 was administered to half of the mice by subcutaneous injection.
As the therapy experiments were carried out with an irradiation dose range, in which the hematological syndrome of the radiation injury predominates, the evaluation of the therapeutic effect of the drug on the blood forming (hematopoetic) system is important.

[4] = system: gamma-radiated mice; assay: Survival of mice after gamma irradiation, single dose of ET18-OCH3 before or after irradiation
Protocol: FIG. 1 depicts the radioprotective effect of ET18-OCH3 on the survival rate of mice. ET18-OCH3 was administered as a single dose of 50 mg/kg body weight to each of 40 mice (20 control mice, 20 test mice). 24 hours later, the 20 test mice were exposed to a gamma radiation dose of 7.9 Gy (Gray) and 8.7 Gy, respectively. The survival rates were monitored for 30 days.

[5] = system: neutron irradiated mice; assay: Survival of mice, ET18-OCH3 given 1 day before neutron irradiation
From the text: The effect of ET18-OCH3 before applying different doses of neutron radiation on the survival rates of mice are summarized in Table 5.

[6] = system: neutron irradiated mice; assay: White blood cell count (hemogram) after ET18-OCH3 and neutron irradiation
Protocol: FIG. 2 depicts the radioprotective effect of ET18-OCH3 (referred to as “ALP”) on the lymphocyte numbers of mice. Mice were treated with a single dose 70 mg/kg ET18-OCH3 (administered subcutaneously) 24 hours before exposure to neutron radiation (radiation dose 2.0 Gy). […]
FIG. 3 depicts the radioprotective effect of ET18-OCH3 (referred to as “ALP”) on the granulocyte numbers of mice. The experiment was performed in an analogous manner as described in FIG. 2.
The radioprotective effect of ET18-OCH3 on lymphocyte and granulocyte numbers in mice is shown in FIG. 2 and FIG. 3, respectively.

[7] = system: gamma-radiated mice; assay: Survival of mice after gamma irradiation, single dose of ET18-OCH3 before or after irradiation; remark: listed apart in the source
[8] = day 7, 50 mg/kg s.c. 30 min after irradiation
[9] = day 7, 50 mg/kg s.c. 2 h after irradiation
[10] = day 14, 50 mg/kg s.c. 30 min after irradiation
[11] = day 14, 50 mg/kg s.c. 2 h after irradiation
[12] = gamma 790 cGy, 50 mg/kg, 1 d before irradiation
[13] = gamma 870 cGy, 50 mg/kg, 1 d before irradiation
[14] = neutron 425 cGy, 50 mg/kg subcutaneously 1 day before irradiation
[15] = neutron 425 cGy, 70 mg/kg subcutaneously 1 day before irradiation
[16] = neutron 450 cGy, 50 mg/kg subcutaneously 1 day before irradiation
[17] = neutron 450 cGy, 70 mg/kg subcutaneously 1 day before irradiation
[18] = gamma 750 cGy, 30 mg/kg, a.r. (after radiation)
[19] = gamma 750 cGy, 50 mg/kg, 1 d before irradiation
[20] = gamma 775 cGy, 40 mg/kg, a.r. (after radiation)
[21] = gamma 775 cGy, 50 mg/kg, 2 h before irradiation
[22] = gamma 775 cGy, 50 mg/kg, 1 d before irradiation
[23] = gamma 800 cGy, 40 mg/kg, a.r. (after radiation)
[24] = gamma 800 cGy, 50 mg/kg, 2 h before irradiation
[25] = gamma 830 cGy, 50 mg/kg, 1 d before irradiation

`CCCCCCCCCCCCCCCCCCOCC(COP(=O)([O-])OCC[N+](C)(C)C)OC` (stereo not drawn) [ET18-OCH3, 1-O-octadecyl-2-O-methyl-glycero-3-phosphocholine] was tested, and the Death/Survival treated ([1]; X-ray dose 650 cGy) was 2/28, the Death/Survival treated ([1]; X-ray dose 700 cGy) was 3/25 and the Death/Survival treated ([1]; X-ray dose 750 cGy) was 14/16. The Death/Survival treated ([1]; X-ray dose 800 cGy) was 22/8, the treated animals died ([1]; oral 25 mg/kg 6 hours and 24 hours after X-ray dose of 700 cGy, control 7 of 25 died) was 2 of 25 and the treated mice died ([1]; single dose 25 mg/kg intravenously 12 hours after X-ray dose of 650 cGy, control 6 of 25 died) was “one of the 25”. For the same compound, the “LD50/30 X-ray dose” value ([1]; treated animals, 25 mg/kg intravenous 6 and 12 hours after irradiation, untreated controls 688.1±38.6) was 749±37.1 cGy, the X-ray mediated lethality ([1]; treated mice compared to control mice) was “delayed” and the Survival/Death ([2]; 30 min) was 18 (75%)/6 (25%). The Survival/Death ([2]; 2 h) was 13 (54%)/11 (46%), the Survival/Death ([2]; 6 h) was 12 (52%)/11 (48%) and the “Granulocytes, median/interquartile distance” value [3, 8] was 209/202. For the same compound, the “Leukocytes, median/interquartile distance” value [3, 8] was 975/450, the “Lymphocytes, median/interquartile distance” value [3, 8] was 684/255 and the “Thrombocytes, median/interquartile distance” value [3, 8] was 698/427. The “Granulocytes, median/interquartile distance” value [3, 9] was 240/304, the “Leukocytes, median/interquartile distance” value [3, 9] was 675/413 and the “Lymphocytes, median/interquartile distance” value [3, 9] was 446/132. For the same compound, the “Thrombocytes, median/interquartile distance” value [3, 9] was 900/315, the “concentration of leukocytes and granulocytes in the peripheral blood” value ([3]; day 10-15 after irradiation, when the irradiated mice died) was “significantly increases” and the “Granulocytes, median/interquartile distance” value [3, 10] was 3063/3121. The “Leukocytes, median/interquartile distance” value [3, 10] was 8675/11827, the “Lymphocytes, median/interquartile distance” value [3, 10] was 7439/6942 and the “Thrombocytes, median/interquartile distance” value [3, 10] was 533/263. The “Granulocytes, median/interquartile distance” value [3, 11] was 4189/2282, the “Leukocytes, median/interquartile distance” value [3, 11] was 9975/5863 and the “Lymphocytes, median/interquartile distance” value [3, 11] was 5101/3765. The “Thrombocytes, median/interquartile distance” value [3, 11] was 987/464, the Death [4, 12] was 2 (10%) and the Survival [4, 12] was 18 (90%). For the same compound, the Death [4, 13] was 7 (35%), the “radioprotective effect on survival” value ([4]; similar when given either 24 hours or shortly before gamma irradiation) was “significant radioprotective effect” and the Death [5, 14] was 11 (73%). The Survival [5, 14] was 4 (27%), the Death [5, 15] was 10 (67%) and the Survival [5, 15] was 5 (33%). The Death [5, 16] was 8 (26%), the Survival [5, 16] was 22 (73%) and the Death [5, 17] was 12 (80%). For the same compound, the Survival [5, 17] was 3 (20%), the Death ([5]; neutron 475 cGy, 50 mg/kg subcutaneously 1 day before irradiation) was 19 (76%) and the “reduction of leukocyte numbers (both of lymphocytes and granulocytes) compared to untreated controls” value ([6]; 50 mg/kg and 70 mg/kg, neutron irradiation, not statistically significant, 5 experiments, n=90) was “slightly increased”. For the same compound, the “difference between the administration of 50 mg/kg and 70 mg/kg” value ([6]; leukocyte numbers after neutron irradiation) was “No statistically significant difference”, the “leukocyte numbers (both lymphocytes and granulocytes)” value ([6]; starting at day 3 after irradiation, significant at day 7 (4 experiments; n=30, p<0.003)) was “increase in leukocyte numbers” and the “number of lymphocyte relative to the normal value” ([6]; treated animals at mid-lethal irradiation doses, average) was “about one tenth”. The Death [7, 18] was 1 (6%), the Survival [7, 18] was 17 (94%) and the Death [7, 19] was 0. The Survival [7, 19] was 20 (100%), the Death [7, 20] was 12 (60%) and the Survival [7, 20] was 8 (40%). For the same compound, the Death [7, 21] was 5 (25%), the Survival [7, 21] was 15 (75%) and the Death [7, 22] was 2 (10%). For the same compound, the Survival [7, 22] was 18 (90%), the Death [7, 23] was 10 (29%) and the Survival [7, 23] was 25 (71%). The Death [7, 24] was 3 (15%), the Survival [7, 24] was 17 (85%) and the Death [7, 25] was 3 (15%). The Survival [7, 25] was 17 (85%), the Survival [7, 13] was 13 (65%) and the “LD50/30 gamma radiation dose” value ([7]; treated irradiated mice, ET18-OCH3 one day before irradiation, probit analysis, untreated irradiated controls 7.47 Gy) was 8.98 Gy.

Source: patent publication US20100130449A1, “Use of Tri-Substituted Glycerol Compounds for the Treatment of Radiation Injuries” (ALPHAPTOSE GMBH, priority 2006, published 2010)
